Laboratory results taken from US20100144704A1, “Method of reducing amyloid-beta peptide levels using a bisdioxopiperazine” (priority 2006, published 2010).
Several values for one entry are separate records, joined by “and”; a condition that tells them apart may be missing. Equal entries are not always repeated.

Legend:
[1] = cited from earlier work
[2] = razoxane compared to dexrazoxane
Source text: The pharmacokinetics of razoxane compared to those of dexrazoxane.

[3] = tested on: Aβ1-42 peptide; assay: Brain Aβ1-42 by sandwich ELISA in double transgenic mice after 21 day razoxane treatment; format: in vivo; settings: for Average Conc, Aβ1-42: group average; for Conc, Aβ1-42: individual mouse cerebral cortex sample
Method: (§1) Double transgenic male mice (APP Swedish mutation+PS1 mutation) express human amyloid precursor protein (APP) and amyloid-β peptide (Aβ) within their brain and form amyloid depositions from 4 months onward. Razoxane (ICRF 159) was administered by intraperitoneal (i.p.) injection once daily for 21 consecutive days to a group of such mice, 5 to 6 months of age and approximately 22 to 28 g in weight. […] Within three hours of the final razoxane/vehicle administration, animals were killed, their brain exposed and a 50-80 mg sample of cerebral cortex collected and frozen at […].

[4] = tested on: APP; assay: APP Western blot in SHSY-5Y cell culture; format: cell-based, human; settings: for APP, percent control levels / APP, % control levels: 16 h; for APP, % control levels: FIG. 5 study
Method: (§2) Cell Culture. The human neuroblastoma cell line, SHSY-5Y, was obtained from the American Type Culture Collection, culture medium was from Mediatech, Inc. (Herndon, Va.) and FCS from HyClone (Logan, Utah). Drug Treatment. […] Cells were allowed to grow in complete media (10% FCS, 2 mM glutamine in DMEM) for 2 days to reach 70% confluence. Thereafter, spent media was removed and replaced with fresh media (2 mL DMEM) containing 0 to 100 μM of freshly prepared compounds (clioquinol, razoxane and dexrazoxane. Cells were incubated at 37° C., 5% CO2 for 16 h. APP Western Blot and cell viability. Fifteen μg of protein from each sample was mixed with Laemmli buffer, boiled for 5 min at 100° C., and loaded onto a 10% SDS PAGE gel (Novex, San Diego, Calif.). […] The blots were incubated in secondary antibody, anti-mouse IgG—conjugated to horseradish peroxidase, for 30 min. Thereafter, samples were detected by chemiluminescence. Cell viability was assessed by a sensitive MTT assay. Values were expressed as the mean of between four and six independent assays and were statistically compared to control values. (See FIGS. 3-5).

[5] = in vivo; cited from earlier work
[6] = tested on: SHSY-5Y human neuronal cells; assay: Cellular toxicity / cell viability by MTT assay; format: cell-based
Method: as §2

[7] = cited from earlier work; remark: listed apart in the source
[8] = tested on: Aβ1-40 peptide; assay: Brain Aβ1-40 by sandwich ELISA in double transgenic mice after 21 day razoxane treatment; format: in vivo; settings: for Average Conc, Aβ1-40: group average; for Conc, Aβ1-40: individual mouse cerebral cortex sample
Method: as §1

[9] = 30 mg/kg once daily x 21 days, male 5 month old transgenic mice
[10] = razoxane 20 mg/kg i.p. once daily x 21 days
[11] = razoxane 30 mg/kg i.p. once daily x 21 days

For CC(CN1CC(=O)NC(=O)C1)N1CC(=O)NC(=O)C1 (racemic) [Razoxane, 1,2-bis(3,5-dioxopiperazin-1-yl)-propane], the Plasma half-life ([1]; humans) is given as “about 3.5 hours”, the Oral bioavailability ([1]; in vivo, po) is given as “orally bioavailable” and the Tolerance in humans ([1]; oral dose of 125 mg, twice a day for five days each week for up to two years) is given as “relatively well tolerated”. The “Elimination from the body” value [2] was “slower elimination”, the “Reduction of brain Aβ1-42 compared to the control group” value [3, 9] was 29% and the “Average Conc, Aβ1-42” value [3, 10] was 564 pM. The “Conc, Aβ1-42” value [3, 10] was 489 pM and 545 pM and 533 pM and 562 pM and 553 pM and 701 pM, the “Average Conc, Aβ1-42” value [3, 11] was 326 pM and the “Conc, Aβ1-42” value [3, 11] was 365 pM and 504 pM and 471 pM and 216 pM and 27.2 pM and 370 pM. For the same compound, the “APP, percent control levels” value ([4]; 0.5 μM, FIG. 4) was 81%, the “APP, % control levels” value ([4]; 0.5 μM) was 75% and the “APP, percent control levels” value ([4]; 2 μM, FIG. 4) was 60%. For the same compound, the “APP, percent control levels” value ([4]; 10 μM, FIG. 4) was 53%, the “APP, % control levels” value ([4]; 10 μM) was 42% and the “Crossing of the blood/brain barrier” value [5] was “cross the blood/brain barrier”. For the same compound, the “Cellular toxicity against SHSY-5Y cells” value ([6]; concentrations up to 100 μM, 16 h, FIG. 3) was “well tolerated and without toxicity”, the “Aqueous solubility (in words)” value [7] was “relatively low aqueous solubility” and the “Reduction of brain Aβ1-40 compared to the control group” value [8, 9] was 46%. The “Average Conc, Aβ1-40” value [8, 10] was 375 pM, the “Conc, Aβ1-40” value [8, 10] was 316.435 pM and 386.757 pM and 378.84 pM and 406.557 pM and 290.284 pM and 468.154 pM and the “Average Conc, Aβ1-40” value [8, 11] was 213 pM. For the same compound, the “Conc, Aβ1-40” value [8, 11] was 162.992 pM and 310.189 pM and 295.464 pM and 129.452 pM and 134.783 pM and 244.537 pM.
With CC(CN1CC(=O)NC(=O)C1)N1CC(=O)NC(=O)C1 (single isomer, unassigned; (+)) [Dexrazoxane, (+)-1,2-Bis(3,5-dioxopiperazin-1-yl)propane] the “Elimination from the body” value [2] was “eliminated more rapidly”, the “APP, % control levels” value ([4]; 0.5 μM) was 87% and the “APP, % control levels” value ([4]; 10 μM) was 59%. For the same compound, the “Aqueous solubility (in words)” value [7] was “more soluble”.
In the case of Oc1c(I)cc(Cl)c2cccnc12 [Clioquinol], the “APP, percent control levels” value ([4]; 0.5 μM, FIG. 4) is reported as 108%, the “APP, percent control levels” value ([4]; 2 μM, FIG. 4) is reported as 116% and the “APP, percent control levels” value ([4]; 10 μM, FIG. 4) is reported as 82%. The “Effect at lowering APP (in words)” value ([4]; FIG. 4) was “without affect” and the Cell viability ([6]; 10 μM, associated with the 18% APP decline, FIG. 4) was “loss of cell viability”.
